Test results from patent US9708314B2, “Heterocyclic amide compound” (NISSAN CHEMICAL INDUSTRIES, LTD., priority 2013, dated 2017).

How the values were obtained:
[1] = tested on: transplanted Oryza sativa; assay: Test Example 1: effect on crop, application before weed generation in submerged conditions; format: in vivo; details: Seventeenth Table; for a (transplanted Oryza sativa) effect on crop grade: application herbicide amount 320 g/ha
Summary of the method: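 Submerged pot test: alluvial soil, 4 cm water, seeds sown mixed, 2.5-leaf rice transplanted; emulsion in water applied to surface day of sowing, dose g/ha; greenhouse 25–30° C.; 3 wk; 0–5 rating.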

[2] = tested on: Echinochloa oryzacola Vasing.; assay: Test Example 2: herbicidal activity, application during weed generation in submerged conditions; format: in vivo; details: Eighteenth Table; application herbicide amount 320 g/ha
Summary of the method: (§1)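 Paddy-type pot test: flooded soil, 4 cm depth, greenhouse 25–30 °C. Emulsion formulation diluted in water, applied to water surface at 1–2 leaf stage; rate expressed as g/ha. Read-out at 3 wk, 0–5 score.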

Monochoria vaginalis = assay: as above; format: in vivo; details: Eighteenth Table; application herbicide amount 320 g/ha
Summary of the method: as §1

Scirpus juncoides = assay: as above; format: in vivo; details: Eighteenth Table; application herbicide amount 320 g/ha
Summary of the method: as §1

## CC(C)c1nnc2c(C(=S)Nc3nnnn3C)ccc(C(F)(F)F)n12 [2-039, 3-Isopropyl-N-(1-methyl-1H-tetrazol-5-yl)-5-(trifluoromethyl)-[1,2,4]triazolo[4,3-a]pyridine-8-carbothioamide]
[1]; Application herbicide amount 320 g/ha
  a: transplanted Oryza sativa (effect on crop grade): 4 (Herbicidal ratio of 70% or more and less than 90%)
[2]
  A (Echinochloa oryzicola Vasing.) herbicidal ratio grade: 5 (Herbicidal ratio of 90% or more (almost completely withered))
Monochoria vaginalis
  C (Monochoria vaginalis) herbicidal ratio grade: 5 (Herbicidal ratio of 90% or more (almost completely withered))
Scirpus juncoides
  B (Scirpus juncoides) herbicidal ratio grade: 5 (Herbicidal ratio of 90% or more (almost completely withered))
other
  melting point: 198 to 200 °C

## CCn1nc2c(C(=O)Nc3nnnn3C)ccc(C(F)(F)F)n2c1=O [6-004]
[1]
  a (transplanted Oryza sativa) effect on crop grade: 0 (Herbicidal ratio of 5% or less (almost no effect))
[2]
  A (Echinochloa oryzicola Vasing.) herbicidal ratio grade: 3 (Herbicidal ratio of 40% or more and less than 70%)
Monochoria vaginalis
  C (Monochoria vaginalis) herbicidal ratio grade: 2 (Herbicidal ratio of 20% or more and less than 40%)
Scirpus juncoides
  B (Scirpus juncoides) herbicidal ratio grade: 0 (Herbicidal ratio of 5% or less (almost no effect))

## CC(C)c1nc2c(C(=O)Nc3nnnn3C)ccc(C(F)(F)F)n2n1 [7-002]
[1]
  a (transplanted Oryza sativa) effect on crop grade: 1 (Herbicidal ratio of 5% or more and less than 20%)
[2]
  A (Echinochloa oryzicola Vasing.) herbicidal ratio grade: 4 (Herbicidal ratio of 70% or more and less than 90%)
Monochoria vaginalis
  C (Monochoria vaginalis) herbicidal ratio grade: 2 (Herbicidal ratio of 20% or more and less than 40%)
Scirpus juncoides
  B (Scirpus juncoides) herbicidal ratio grade: 2 (Herbicidal ratio of 20% or more and less than 40%)
